The text below walks through data of patent US10584303B2, “Stabilization of isothiazolones in aqueous compositions” (DDP Specialty Electronic Materials US, Inc., priority 2014, dated 2020).

A short description of data set [1]: Stability of MIT: 25% amine and 10 ppm MIT (HPLC). Conditions: extremely high ratios of amine:isothiazolone (25% amine, 10 ppm MIT); room temperature and 40° C.
Protocol: (§1) The MWF samples dosed with biocide were analyzed for active level by high pressure liquid chromatography (HPLC) at time 0. The samples were then vortexed and split into a sample that was aged at room temperature and a sample that was aged at 40° C. Each week an aliquot of the aged samples was evaluated by HPLC for the level of active remaining. Samples where no active was found for two consecutive weeks were no longer analyzed.
The conditions of data set [2]: 168 h.
Protocol: as §1

The structures appear in SMILES notation. Read-outs that look alike come from different tables or passages of the source.

Regarding `CCC(O)CN(CCO)CCO` (stereo not drawn) [Amine A, 1-[bis(hydroxylethyl)amino]-2-butanol], the “stability of MIT compared with other amines” value in data set [1] was “much better stability”.
On the same count and under the same terms, as for `CCC(O)CN(CCO)CC(O)CC` (stereo not drawn) [Amine D, N,N-bis(2-hydroxybutyl)-2-amino ethanol], the entry is “much better stability”.
Turning to `NCCO` [Amine F, 2-aminoethanol, reference compound], the “remaining active ingredient MIT” value in data set [2] is 0 wt % and the “remaining active ingredient MIT” value (336 h) amounted to 108 wt %.
For the compound `CC(O)CN(CC(C)O)CC(C)O` (stereo not drawn) [Amine G, triisopropanol amine], the “remaining active ingredient MIT” value is, setting by setting: (336 h) 110 wt %; (504 h) 108 wt %.
